What was measured:
Format in all cases: functional, cell-based
U2OS [1] = assay: Cytotoxicity against human U2OS cells expressing wild-type p53 after 24 hrs by crystal violet-staining based spectrophotometric assay
U2OS [2] = assay: Cytotoxicity against human U2OS cells expressing wild-type p53 after 48 hrs by crystal violet-staining based spectrophotometric assay
[3] = Cytotoxicity against human Saos2 cells […] after 48 hrs by crystal violet-staining based spectrophotometric assay; conditions: SAOS-2, 48 h
[4] = Cytotoxicity against human Saos2 cells […] after 24 hrs by crystal violet-staining based spectrophotometric assay; conditions: SAOS-2, 24 h

Compound	EC50 (U2OS [1]) [µM]	EC50 (U2OS [2]) [µM]	EC50 [3] [µM]	EC50 [4] [µM]
COc1c2cc(c(OC)c1O)Oc1ccc(cc1)[C@@H](O)C[C@@H](O)/C=C/C=C\2	> 150	> 150	> 150	> 150
O=C1C[C@@H](O)Cc2ccc(O)c(c2)-c2cc(ccc2O)C[C@H](O)[C@H]1O	> 150	> 150	> 150	> 150
O=C1CCc2ccc(O)c(c2)-c2cc(ccc2O)C[C@H](O)C[C@H]1O	> 150	> 150	> 150	> 150
Oc1ccc2cc1-c1cc(ccc1O)C[C@H](O)[C@H](O)C(O)[C@@H](O)[C@H](O)C2 (stereo partly drawn)	> 150	> 150	> 150	> 150
C[C@H]1OC(Oc2c(-c3ccc(O)cc3)oc3cc(O)cc(O)c3c2=O)[C@@H](O)[C@@H](O)[C@@H]1OC(=O)/C=C/c1ccc(O)cc1 (stereo partly drawn)	> 150	> 150	> 150	> 150
COc1cc(/C=C/C(=O)CC(=O)/C=C/c2ccc(O)c(OC)c2)ccc1O [CURCUMIN]	34.4	22.8	28.1	48.6
Oc1ccc2cc1-c1cc(ccc1O)C[C@H](O)[C@@H](O)[C@@H](O)C[C@@H](O)C2	> 150	> 150	> 150	> 150
O=C1CCc2ccc(O)c(c2)-c2cc(ccc2O)C[C@H](O[C@@H]2O[C@H](CO)[C@H](O)[C@@H](O)[C@H]2O)C[C@H]1O	> 150	> 150	> 150	> 150
C[C@H]1OC(Oc2c(-c3ccc(O)c(O)c3)oc3cc(O)cc(O)c3c2=O)[C@@H](O)[C@@H](O)[C@@H]1O (stereo partly drawn)	> 150	> 150	> 150	> 150
C[C@H]1OC(Oc2c(-c3cc(O)c(O)c(O)c3)oc3cc(O)cc(O)c3c2=O)[C@@H](O)[C@@H](O)[C@@H]1O (stereo partly drawn)	> 150	> 150	> 150	> 150
C[C@H]1OC(Oc2c(-c3ccc(O)cc3)oc3cc(O)cc(O)c3c2=O)[C@@H](O)[C@@H](O)[C@@H]1O (stereo partly drawn)	> 150	> 150	> 150	> 150
COc1c2cc(c(OC)c1O)Oc1ccc(cc1)[C@@H](O)C[C@@H](O)CC/C=C\2	> 150	> 150	> 150	> 150

From ChEMBL document CHEMBL3758089, “Giffonins J-P, Highly Hydroxylated Cyclized Diarylheptanoids from the Leaves of Corylus avellana Cultivar "Tonda di Giffoni"” (J Nat Prod, 2015)
